How the values were obtained:
Type in all cases: toxicity, cell-based
HEK-293T = test: Incucyte cell viability with HEK293T; settings: human, 10 µM, compound concentration 10 uM
U2OS = test: Incucyte cell viability with U2OS; settings: human, 10 µM, compound concentration 10 uM
Fibroblast = test: Incucyte cell viability with human fibroblast; settings: 10 µM, compound concentration 10 uM
Also: unitless GR value; below 1 slowed growth and below 0 cell loss.

Row | SMILES | Growth Rate (HEK-293T; 0 h, replicate number 2) | Growth Rate (U2OS; 12 h, replicate number 2) | Growth Rate (U2OS; 18 h, replicate number 2) | Growth Rate (U2OS; 24 h, replicate number 2) | Growth Rate (U2OS; 0 h, replicate number 1) | Growth Rate (U2OS; 0 h, replicate number 2) | Growth Rate (U2OS; 6 h, replicate number 2) | Growth Rate (Fibroblast; 6 h, replicate number 2) | Growth Rate (Fibroblast; 12 h, replicate number 2) | Growth Rate (Fibroblast; 18 h, replicate number 1) | Growth Rate (Fibroblast; 18 h, replicate number 2) | Growth Rate (Fibroblast; 24 h, replicate number 1) | Growth Rate (U2OS; 24 h, replicate number 1) | Growth Rate (U2OS; 6 h, replicate number 1) | Growth Rate (U2OS; 12 h, replicate number 1) | further results
1 | CNc1oc(-c2cccc3ccccc23)nc1C#N | -0.92 | 0.93 | 0.92 | 0.99 |  |  |  |  |  |  |  |  |  |  |  | 
2 | COc1cc(Nc2cnc(C#N)c(O[C@H](C)CN(C)C)n2)ncc1-c1cnn(C)c1 | -0.51 | 0.82 | 0.67 | 0.43 | -1 | 0.66 | 0.42 |  |  |  |  |  |  |  |  | Growth Rate (HEK-293T; 0 h, replicate number 1): -1; Growth Rate (HEK-293T; 6 h, replicate number 1): 0.63; Growth Rate (HEK-293T; 6 h, replicate number 2): -0.18; Growth Rate (HEK-293T; 12 h, replicate number 1): -0.1; Growth Rate (HEK-293T; 12 h, replicate number 2): -0.4; Growth Rate (HEK-293T; 18 h, replicate number 1): -0.17; Growth Rate (HEK-293T; 18 h, replicate number 2): -0.32; Growth Rate (HEK-293T; 24 h, replicate number 1): -0.06; Growth Rate (HEK-293T; 24 h, replicate number 2): -0.22
3 | O=C(O)c1cccc(C2=C(c3cc(Cl)ccc3OCc3ccc(F)cc3F)CCC2)n1 |  | 1 |  |  |  |  |  |  |  |  |  |  |  |  |  | Growth Rate (HEK-293T; 0 h, replicate number 1): 0.79
4 | CC(C)N(CCCCOCC(=O)O)c1cnc(-c2ccccc2)c(-c2ccccc2)n1 |  |  |  | 0.99 |  |  |  |  |  |  |  |  |  |  |  | Growth Rate (Fibroblast; 0 h, replicate number 2): -0.09
5 | N#C/C(=C\c1ccc(O)c(O)c1)C(=O)OCCc1cccs1 |  | 0.63 | 0.94 | 0.93 |  | 0.41 |  | -0.28 | 0.78 | 1 | 0.58 | 0.86 | 0.8 |  |  | Growth Rate (Fibroblast; 24 h, replicate number 2): 0.54
6 | CC(C)(O)[C@H](F)CN1Cc2cc(NC(=O)c3cnn4cccnc34)c(N3CCOCC3)cc2C1=O | 0.15 | 0.95 | 0.95 | 0.93 | -0.84 |  |  |  |  |  |  |  |  |  |  | Growth Rate (HEK-293T; 6 h, replicate number 1): 0.89; Growth Rate (HEK-293T; 6 h, replicate number 2): 0.72; Growth Rate (HEK-293T; 12 h, replicate number 1): 1; Growth Rate (HEK-293T; 12 h, replicate number 2): 0.86; Growth Rate (HEK-293T; 18 h, replicate number 2): 0.82; Growth Rate (HEK-293T; 24 h, replicate number 1): 0.96; Growth Rate (HEK-293T; 24 h, replicate number 2): 0.85
7 | Cl.Cl.Nc1nccc(-c2c(-c3ccc(F)cc3)ncn2C2CCCCC2)n1 | 0.73 |  | 0.84 | 0.81 |  |  |  |  |  |  |  |  | 0.95 | 0.19 | 0.8 | Growth Rate (HEK-293T; 6 h, replicate number 1): 0.63; Growth Rate (HEK-293T; 6 h, replicate number 2): 0.51; Growth Rate (HEK-293T; 12 h, replicate number 1): 0.99; Growth Rate (HEK-293T; 12 h, replicate number 2): 0.49; Growth Rate (HEK-293T; 18 h, replicate number 1): 0.99; Growth Rate (HEK-293T; 18 h, replicate number 2): 0.44; Growth Rate (HEK-293T; 24 h, replicate number 1): 0.95; Growth Rate (HEK-293T; 24 h, replicate number 2): 0.51; Growth Rate (U2OS; 18 h, replicate number 1): 0.93
8 | Cc1cc(Cn2c(N3CC4(CNC4)C3)nc3cc(Cl)cc(N4CCN(C)CC4)c32)cc(C)c1F |  | 0.82 | 0.98 | 0.96 | -0.3 | -0.61 | 0.64 | -0.44 | 0.21 | 0 | 0.16 | 0.06 | 0.83 | 0.43 | 0.79 | Growth Rate (Fibroblast; 0 h, replicate number 1): -1; Growth Rate (Fibroblast; 0 h, replicate number 2): -0.8; Growth Rate (Fibroblast; 6 h, replicate number 1): -0.09; Growth Rate (Fibroblast; 12 h, replicate number 1): -0.09; Growth Rate (Fibroblast; 24 h, replicate number 2): 0.36; Growth Rate (U2OS; 18 h, replicate number 1): 0.95
9 | CCN1C(=O)C(c2cccc(C(=O)O)c2)C(=O)N(c2ccccc2)c2cc(C(F)(F)F)ccc21 (centres undefined) |  | 0.94 | 0.95 |  | 0.96 | 0.93 | 0.97 | -0.94 | 0.41 | 0.92 | 0.96 | 0.95 | 0.88 | 0.49 | 0.8 | Growth Rate (Fibroblast; 0 h, replicate number 1): -1; Growth Rate (Fibroblast; 0 h, replicate number 2): 0.93; Growth Rate (Fibroblast; 6 h, replicate number 1): 0.7; Growth Rate (Fibroblast; 12 h, replicate number 1): 0.85
10 | COc1cc(C)c(S(=O)(=O)N(C)CCC(=O)N[C@H]2CC[C@@H](N3CCC4CN(C)CC4C3)CC2)c(C)c1.Cl.Cl (some centres undefined) |  | 0.88 | 0.99 |  |  |  | 0.87 |  |  |  |  |  |  | 0.78 | 0.97 | Growth Rate (Fibroblast; 0 h, replicate number 2): -0.7; Growth Rate (Fibroblast; 6 h, replicate number 1): 0.39
11 | O=C(Nc1cc2cc[nH]c(=O)c2cc1Cl)[C@H]1CNC[C@@H]1c1cccnc1.O=C(O)C(F)(F)F |  |  |  |  |  |  |  |  |  |  |  |  |  |  |  | Growth Rate (HEK-293T; 0 h, replicate number 1): -0.73
12 | CS(C)(=O)=Nc1ccc(-c2ccc(-c3nc4[nH]c(O[C@@H]5CO[C@H]6[C@@H]5OC[C@H]6O)nc4cc3Cl)cc2)cc1 |  | 0.92 | 0.97 | 0.98 | 0.01 |  | 0.94 |  |  |  |  | 0.75 | 0.77 | 0.36 | 0.65 | Growth Rate (U2OS; 18 h, replicate number 1): 0.82
13 | Cc1nc2cccnc2n2c(-c3cc([C@@]4(O)CCCOC4)ccc3Cl)nnc12 |  | 0.83 | 0.96 |  |  |  |  | -0.24 | 0.67 | 0.97 | 0.74 | 0.81 |  |  |  | Growth Rate (Fibroblast; 6 h, replicate number 1): 0.39; Growth Rate (Fibroblast; 24 h, replicate number 2): 0.88
14 | COc1cc(-c2cc3ncccc3c(O[C@@H](C)[C@H]3CNC(=O)C3)n2)cc(OC)c1OC |  |  |  |  |  |  |  |  | 0.62 |  |  |  |  | 0.94 |  | 
15 | Cc1cnc(Nc2ccc(C(=O)N3CCN(C)CC3)cc2)nc1N[C@@H]1CCC[C@@H]1C(N)=O |  | 0.38 | 0.45 | 0.52 | 0.86 | 0.22 | -0.77 | 0.31 | -0.08 |  | 0.56 | 0.96 | 0.34 | 0.41 | 0.4 | Growth Rate (Fibroblast; 12 h, replicate number 1): 0.62; Growth Rate (Fibroblast; 24 h, replicate number 2): 0.61; Growth Rate (U2OS; 18 h, replicate number 1): 0.31
16 | Cl.Clc1cc2cc(c1)-c1cnn3ccc(nc13)NCCOCCO2 |  | 0.85 |  | 0.92 | -0.1 | 0.65 | 0.72 | -0.68 |  | 0.22 |  | -0.13 | 0.93 |  | 0.99 | Growth Rate (Fibroblast; 6 h, replicate number 1): 0.79; Growth Rate (Fibroblast; 12 h, replicate number 1): -1
17 | O=C(O)c1ccc(CN2C[C@@H]3C[C@H]2CN3Cc2ccc(Oc3ccc(-c4ncco4)cc3)cc2)cc1 [ACEBILUSTAT] |  | 0.49 | 0.79 | 0.82 |  | 0.32 | -0.01 | -0.8 | 0.38 |  | 0.62 |  |  | 0.74 |  | Growth Rate (Fibroblast; 0 h, replicate number 1): -0.98; Growth Rate (Fibroblast; 24 h, replicate number 2): 0.87
18 | CC(C)(C#N)c1cc(Cn2cncn2)cc(C(C)(C)C#N)c1 [ANASTROZOLE] |  |  |  |  | -0.51 |  |  |  |  | 0.84 |  | 0.63 |  |  |  | Growth Rate (Fibroblast; 0 h, replicate number 2): -1; Growth Rate (Fibroblast; 12 h, replicate number 1): -1
19 | CC#CCC(C)[C@H](O)/C=C/[C@@H]1[C@H]2C/C(=C/CCCC(=O)O)C[C@H]2C[C@H]1O (some centres undefined) [ILOPROST] | 0.38 |  |  |  |  |  |  |  |  |  |  |  | 0.86 |  |  | Growth Rate (HEK-293T; 0 h, replicate number 1): 0.66
20 | COc1nc2ccc([C@@](O)(c3ccc(Cl)cc3)c3cncn3C)cc2c(Cl)c1Cc1ccc(-n2cccn2)cc1 [JNJ-53721590] | -1 |  |  |  | -1 |  |  |  |  |  |  |  |  | -0.25 |  | Growth Rate (HEK-293T; 0 h, replicate number 1): -0.99

Reference: ChEMBL document CHEMBL5303304, “EUbOPEN Chemogenomics Library - IncuCyte” (2023)
